Laboratory results published in ChEMBL document CHEMBL5329206 (Bioorg Med Chem, 2023).
The source made the active and inactive calls. The calls are words filed in the database; no cut-off is given here. Where a SMILES comes first, the peptide text is derived from it.

Tests used:
[1] = biological target: Replicase polyprotein 1ab (Severe acute respiratory syndrome coronavirus 2) (UniProt P0DTD1); experiment: Inhibition of SARS-CoV-2 MPro using protease substrate at 1 uM preincubated with enzyme for 10 mins followed by substrate addition and measured after 5 mins by FRET based assay; conditions: time 15.0 min
[2] = biological target: Replicase polyprotein 1ab (Severe acute respiratory syndrome coronavirus 2, UniProt P0DTD1); experiment: Inhibition of SARS-CoV-2 MPro using protease substrate preincubated with enzyme for 10 mins followed by substrate addition and measured after 5 mins by FRET based assay
SARS-CoV-2 [3] = experiment: Antiviral activity against SARS-CoV-2 infected in African green monkey Vero E6 cells assessed as inhibition of viral infection preincubated for 1 hr followed by incubation in methylcellulose medium for 25 to 26 hrs by TrueBlue based EliSpot analysis; format: functional, organism-based; conditions: Severe acute respiratory syndrome coronavirus 2, Vero C1008
[4] = Cytotoxicity against African green monkey Vero E6 cells assessed as cell growth inhibition measured after 48 hrs by CCK8 assay; format: toxicity, cell-based, Vero C1008; conditions: chlorocebus sabaeus
Cathepsin K [5] = biological target: T1, Cathepsin K (Homo sapiens, UniProt P43235); experiment: Inhibition of human Cathepsin K at 20 uM measured after 30 mins by fluorescence based microplate reader analysis relative to control; format: toxicity; conditions: human Cathepsin K enzyme
T1 sequence (P43235 whole entry): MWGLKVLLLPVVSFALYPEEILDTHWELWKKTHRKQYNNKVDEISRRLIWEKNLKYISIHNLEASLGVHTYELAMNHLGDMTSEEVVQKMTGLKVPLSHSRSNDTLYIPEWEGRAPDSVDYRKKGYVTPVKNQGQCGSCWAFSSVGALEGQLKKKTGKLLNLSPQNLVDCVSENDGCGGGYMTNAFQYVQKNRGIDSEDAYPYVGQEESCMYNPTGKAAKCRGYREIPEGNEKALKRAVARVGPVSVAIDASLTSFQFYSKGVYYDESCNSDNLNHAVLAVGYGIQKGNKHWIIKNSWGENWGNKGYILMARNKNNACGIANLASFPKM

[6] = biological target: Replicase polyprotein 1ab (Severe acute respiratory syndrome coronavirus 2) (UniProt P0DTD1); experiment: Inhibition of SARS-CoV-2 MPro using protease substrate at 5 uM preincubated with enzyme for 10 mins followed by substrate addition and measured after 5 mins in presence of 4 mM DTT by FRET based assay; conditions: time 15.0 min
[7] = biological target: Replicase polyprotein 1ab (Severe acute respiratory syndrome coronavirus 2) (UniProt P0DTD1); experiment: Inhibition of SARS-CoV-2 MPro using protease substrate at 5 uM preincubated with enzyme for 10 mins followed by substrate addition and measured after 5 mins by FRET based assay; conditions: time 15.0 min
Cathepsin K [8] = biological target: T1, Cathepsin K; experiment: Inhibition of human Cathepsin K measured after 30 mins by fluorescence based microplate reader analysis relative to control; format: toxicity
Cathepsin B = Cathepsin B (Homo sapiens, UniProt P07858); experiment: Inhibition of human Cathepsin B at 20 uM measured after 30 mins by fluorescence based microplate reader analysis relative to control; format: toxicity; conditions: human Cathepsin B enzyme
SARS-CoV-2 [9] = experiment: Antiviral activity against SARS-CoV-2; format: functional, organism-based; conditions: Severe acute respiratory syndrome coronavirus 2
[10] = biological target: Replicase polyprotein 1ab (Severe acute respiratory syndrome coronavirus 2) (UniProt P0DTD1); experiment: Covalent inhibition of SARS-Cov-2 MPro using protease substrate at 1 uM preincubated with enzyme for 5 to 80 mins followed by substrate addition and measured every 10s for 10 mins by FRET based assay; conditions: time 15-90 min, TDE = time-dependent effect

Structure (SMILES) | inhibition [1] | IC50 [2] [nM] | further results
O=c1c2ccccc2[se]n1Cc1cccnc1 | 80.6% | 459 | –
CS(=O)(=O)Nc1ccc(C(=O)Nc2ccc(-n3[se]c4ccccc4c3=O)cc2)cc1 | inactive | – | –
O=c1c2ccccc2[se]n1Cc1ccccc1 | 95.5% | 364 | EC50 (SARS-CoV-2 [3]): 8010 nM; CC50 at 48 h [4]: > 100000 nM
CC(C)(C)OC(=O)N1CCC(n2[se]c3ccccc3c2=O)CC1 | 85.2% | 417 | –
CCOC(=O)c1ccc(-n2[se]c3ccccc3c2=O)cc1 | 68.4% | – | inhibition at 0.5 h, 20 µM (Cathepsin K [5]): 5%
Nc1ccc2c(=O)n(-c3ccccc3)[se]c2c1 | 87% | 322 | inhibition [6]: inactive; inhibition [7]: Active
O=c1c2ccccc2[se]n1Cc1ccncc1 | 97.4% | 287 | IC50 (Cathepsin K [8]): > 20000 nM; EC50 (SARS-CoV-2 [3]): > 20000 nM; inhibition [6]: inactive; inhibition at 0.5 h, 20 µM (Cathepsin B): 87%; inhibition at 0.5 h, 20 µM (Cathepsin K [5]): 42%; CC50 at 48 h [4]: 55700 nM; inhibition [7]: Active
O=C(NC1CCCC1)C(=O)[C@H](C[C@@H]1CCNC1=O)NC(=O)[C@@H]1[C@H]2CCC[C@H]2CN1C(=O)[C@@H](NC(=O)C(F)(F)F)C1CCCCC1 | – | – | EC50 (SARS-CoV-2 [9]): 95 nM
NS(=O)(=O)c1ccc(C(=O)N2CCC(n3[se]c4ccccc4c3=O)CC2)cc1 | 88.3% | 550 | –
O=c1c2ccccc2[se]n1C1CCN(S(=O)(=O)C2CC2)CC1 | 96.2% | 356 | EC50 (SARS-CoV-2 [3]): > 20000 nM; CC50 at 48 h [4]: 27500 nM
O=C(OCc1ccccc1)N1CCC(n2[se]c3ccccc3c2=O)CC1 | 71.2% | – | –
O=c1c2ccccc2[se]n1-c1ccccc1 [EBSELEN] | 88.3% | – | IC50 (Cathepsin K [8]): > 20000 nM; EC50 (SARS-CoV-2 [3]): 3780 nM; inhibition [6]: inactive; inhibition at 0.5 h, 20 µM (Cathepsin B): 62%; inhibition at 0.5 h, 20 µM (Cathepsin K [5]): 38%; CC50 at 48 h [4]: 70500 nM; inhibition [7]: Active; inhibition [10]: Tde
O=c1c2ccccc2[se]n1C1CCN(S(=O)(=O)c2cccnc2)CC1 | 101% | 268 | IC50 (Cathepsin K [8]): > 20000 nM; EC50 (SARS-CoV-2 [3]): > 13300 nM; inhibition at 0.5 h, 20 µM (Cathepsin B): 4%; CC50 at 48 h [4]: 13300 nM
CC(=O)N[C@@H](CC(C)C)C(=O)N[C@H](C(=O)N[C@H](C=O)CCCCN)C(C)C (Ac-Leu-Val-Lys-aldehyde) | – | – | inhibition at 0.5 h, 20 µM (Cathepsin B): 99%
O=c1c2ccccc2[se]n1C1CCN(S(=O)(=O)c2cccs2)CC1 | 67.8% | – | –
Nc1ccc2[se]n(-c3ccccc3)c(=O)c2c1 | 21.8% | – | –
O=c1c2ccccc2[se]n1C1CCN(S(=O)(=O)c2cccc(Cl)c2)CC1 | 24.7% | – | –
O=c1c2cc([N+](=O)[O-])ccc2[se]n1-c1ccccc1 | 18.8% | – | –
O=C(Nc1ccc2c(=O)n(-c3ccccc3)[se]c2c1)c1cccs1 | 38.9% | – | –
O=c1c2ccccc2[se]n1C1CCNCC1 | 57.5% | – | –
CN(C)S(=O)(=O)Nc1ccc(-n2[se]c3ccccc3c2=O)cc1 | 91.8% | 233 | EC50 (SARS-CoV-2 [3]): > 9910 nM; inhibition [6]: inactive; CC50 at 48 h [4]: 9910 nM; inhibition [7]: Active; inhibition [10]: Tde
O=c1c2ccccc2[se]n1-c1ccc(NS(=O)(=O)C2CC2)cc1 | 89.7% | 528 | inhibition [6]: inactive; inhibition [7]: Active
CC(C)(F)C[C@H](N[C@@H](c1ccc(-c2ccc(S(C)(=O)=O)cc2)cc1)C(F)(F)F)C(=O)NC1(C#N)CC1 [ODANACATIB] | – | – | inhibition at 0.5 h, 20 µM (Cathepsin K [5]): 96%
O=C(Nc1ccc(-n2[se]c3ccccc3c2=O)cc1)C1CC1 | 95.5% | 490 | –
O=c1c2ccccc2[se]n1Cc1ccc2ccccc2c1 | 34.6% | – | –
O=c1c2ccc([N+](=O)[O-])cc2[se]n1-c1ccccc1 | 49.2% | – | –
CC(C)(C)OC(=O)Nc1ccc(-n2[se]c3ccccc3c2=O)cc1 | 32.1% | – | –
O=c1c2ccccc2[se]n1Cc1ccc2[nH]ccc2c1 | 32.6% | – | –
